Assay results from ChEMBL document CHEMBL5380778, “Structure-Directed Discovery of Potent Soluble Epoxide Hydrolase Inhibitors for the Treatment of Inflammatory Diseases” (J Med Chem, 2023).
pIC50: −log10 of the molar value.

Key:
[1] = biological target: T1, Bifunctional epoxide hydrolase 2 (Homo sapiens, UniProt P34913); assay: Inhibition of recombinant human soluble epoxide hydrolase using PHOME as substrate assessed as 6-methoxynaphthaldehyde product formation preincubated with compound for 10 mins followed by substrate addition and measured by fluorescence based analysis
T1 sequence (P34913 whole entry): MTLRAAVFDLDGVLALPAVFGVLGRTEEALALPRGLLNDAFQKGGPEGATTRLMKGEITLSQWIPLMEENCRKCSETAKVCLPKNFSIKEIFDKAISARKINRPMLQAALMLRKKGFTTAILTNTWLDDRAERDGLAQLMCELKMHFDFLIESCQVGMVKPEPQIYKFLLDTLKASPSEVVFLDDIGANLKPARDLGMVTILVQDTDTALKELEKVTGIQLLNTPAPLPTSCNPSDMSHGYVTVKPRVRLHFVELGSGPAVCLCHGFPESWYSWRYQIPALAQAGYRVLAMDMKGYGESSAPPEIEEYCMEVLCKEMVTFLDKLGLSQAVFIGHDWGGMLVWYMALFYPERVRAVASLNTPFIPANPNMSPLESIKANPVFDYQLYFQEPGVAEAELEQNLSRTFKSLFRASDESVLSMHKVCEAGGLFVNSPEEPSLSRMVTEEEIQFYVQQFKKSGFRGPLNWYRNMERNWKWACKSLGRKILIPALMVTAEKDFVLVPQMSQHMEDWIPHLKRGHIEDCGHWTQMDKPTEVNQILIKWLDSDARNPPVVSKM

[2] = biological target: T2, Bifunctional epoxide hydrolase 2 (Mus musculus, UniProt P34914); assay: Inhibition of recombinant mouse soluble epoxide hydrolase using PHOME as substrate assessed as 6-methoxynaphthaldehyde product formation preincubated with compound for 10 mins followed by substrate addition and measured by fluorescence based analysis
T2 sequence (P34914 whole entry): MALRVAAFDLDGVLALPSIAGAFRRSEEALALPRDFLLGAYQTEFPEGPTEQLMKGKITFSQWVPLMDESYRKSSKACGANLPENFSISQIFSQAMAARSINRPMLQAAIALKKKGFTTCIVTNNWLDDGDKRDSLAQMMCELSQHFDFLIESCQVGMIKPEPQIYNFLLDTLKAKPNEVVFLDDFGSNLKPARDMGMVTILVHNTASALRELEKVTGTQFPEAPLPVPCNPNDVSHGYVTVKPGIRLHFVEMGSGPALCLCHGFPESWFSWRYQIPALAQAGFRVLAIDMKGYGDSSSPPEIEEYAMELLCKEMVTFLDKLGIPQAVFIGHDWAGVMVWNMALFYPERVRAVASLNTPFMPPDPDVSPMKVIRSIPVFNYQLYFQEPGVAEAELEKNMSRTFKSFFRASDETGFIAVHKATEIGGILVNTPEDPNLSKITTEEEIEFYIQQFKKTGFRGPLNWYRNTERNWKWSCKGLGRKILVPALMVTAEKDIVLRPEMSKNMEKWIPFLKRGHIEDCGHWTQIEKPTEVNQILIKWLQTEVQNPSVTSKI

Compound | pIC50 [1] | pIC50 [2]
CCC(=O)N1CCC(CC(=O)N2CCCN(C(=O)c3ccc(NC(=O)N[C@@]45C[C@@H]6C[C@@](C)(C[C@@](C)(C6)C4)C5)c(F)c3)CC2)CC1 | 9.05 | 9.41
CC(O)CNC(=O)C1CCN(C(=O)c2ccc(NC(=O)N[C@@]34C[C@@H]5C[C@@](C)(C[C@@](C)(C5)C3)C4)c(F)c2)CC1 (stereo partly drawn) | 8.35 | 9.74
C[C@]12C[C@@H]3C[C@](C)(C1)C[C@@](NC(=O)Nc1ccc(C(=O)N4CCC(C(=O)NCCO)CC4)cc1F)(C3)C2 | 8.46 | 9.59
C[C@]12C[C@@H]3C[C@](C)(C1)C[C@@](NC(=O)Nc1ccc(C(=O)NC4CCC(C(=O)NCCO)CC4)cc1F)(C3)C2 (stereo partly drawn) | 9.10 | 9.74
CCN(CC)C(=O)C1CCN(C(=O)c2ccc(NC(=O)N[C@@]34C[C@@H]5C[C@@](C)(C[C@@](C)(C5)C3)C4)c(F)c2)CC1 | 8.66 | 9.28
C[C@]12C[C@@H]3C[C@](C)(C1)C[C@@](NC(=O)Nc1ccc(CN4CCCC(C(=O)NC(CO)(CO)CO)C4)cc1F)(C3)C2 (stereo partly drawn) | 9.85 | 9.49
C[C@]12C[C@@H]3C[C@](C)(C1)C[C@@](NC(=O)Nc1ccc(CN4CCCC(C(=O)N5CCCN(C(=O)C6CC6)CC5)C4)cc1F)(C3)C2 (stereo partly drawn) | 9.38 | 9.10
C=CC(=O)N1CCCN(C(=O)C2CCCN(Cc3ccc(NC(=O)N[C@@]45C[C@@H]6C[C@@](C)(C[C@@](C)(C6)C4)C5)c(F)c3)C2)CC1 (stereo partly drawn) | 9.38 | 8.96
C[C@]12C[C@@H]3C[C@](C)(C1)C[C@](NC(=O)Nc1ccc(C(=O)N4CCCC(C(=O)NCCO)C4)cc1F)(C3)C2 (stereo partly drawn) | 9.46 | 9.82
CC(O)CNC(=O)C1CCCN(Cc2ccc(NC(=O)N[C@@]34C[C@@H]5C[C@@](C)(C[C@@](C)(C5)C3)C4)c(F)c2)C1 (stereo partly drawn) | 9.55 | 9.24
C[C@]12C[C@@H]3C[C@](C)(C1)C[C@@](NC(=O)Nc1ccc(CN4CCCC(C(=O)NCCO)C4)cc1F)(C3)C2 (stereo partly drawn) | 9.20 | 9.74
C[C@]12C[C@@H]3C[C@](C)(C1)C[C@@](NC(=O)Nc1ccc(CN4CCC(C(=O)N(CCO)CCO)CC4)cc1F)(C3)C2 | 8.17 | 9.26
CC(C)(C)OC(=O)N1CCN(CCNC(=O)C2CCC(NC(=O)c3ccc(NC(=O)N[C@@]45C[C@@H]6C[C@@](C)(C[C@@](C)(C6)C4)C5)c(F)c3)CC2)CC1 (stereo partly drawn) | 6.74 | 8.70
C[C@]12C[C@@H]3C[C@](C)(C1)C[C@@](NC(=O)Nc1ccc(C(=O)N4CCCC(C(=O)O)C4)cc1F)(C3)C2 (stereo partly drawn) | 8.34 | 8.89
C[C@]12C[C@@H]3C[C@](C)(C1)C[C@@](NC(=O)Nc1ccc(CN4CCCC(C(=O)O)C4)cc1F)(C3)C2 (stereo partly drawn) | 8.64 | 9.21
C[C@]12C[C@@H]3C[C@](C)(C1)C[C@@](NC(=O)Nc1ccc(CN4CCC(C(N)=O)CC4)cc1F)(C3)C2 | 8.81 | 10.22
C[C@]12C[C@@H]3C[C@](C)(C1)C[C@@](NC(=O)Nc1ccc(CN4CCCC(C(=O)NC(CO)CO)C4)cc1F)(C3)C2 (stereo partly drawn) | 9.55 | 9.46
C[C@]12C[C@@H]3C[C@](C)(C1)C[C@@](NC(=O)Nc1ccc(C(=O)NC4CCC(C(N)=O)CC4)cc1F)(C3)C2 (stereo partly drawn) | 9.08 | 9.46
CC(CN(C)C)N1CCC(CC(=O)N2CCCN(C(=O)c3ccc(NC(=O)N[C@@]45C[C@@H]6C[C@@](C)(C[C@@](C)(C6)C4)C5)c(F)c3)CC2)CC1 (stereo partly drawn) | 7.71 | 9.10
C[C@]12C[C@@H]3C[C@](C)(C1)C[C@@](NC(=O)Nc1ccc(C(=O)NC4CCC(C(=O)NC(CO)CO)CC4)cc1F)(C3)C2 (stereo partly drawn) | 9.04 | 9.26
C[C@]12C[C@@H]3C[C@](C)(C1)C[C@@](NC(=O)Nc1ccc(C(=O)N4CCCC(C(=O)N5CCN(CCO)CC5)C4)cc1F)(C3)C2 (stereo partly drawn) | 9.08 | 9.82
CC(O)CNC(=O)C1CCN(Cc2ccc(NC(=O)N[C@@]34C[C@@H]5C[C@@](C)(C[C@@](C)(C5)C3)C4)c(F)c2)CC1 (stereo partly drawn) | 8.22 | 9.33

Compound | pIC50 [1] | pIC50 [2]
C[C@]12C[C@@H]3C[C@](C)(C1)C[C@@](NC(=O)Nc1ccc(C(=O)NC4CCC(C(=O)NC(CO)(CO)CO)CC4)cc1F)(C3)C2 (stereo partly drawn) | 9.46 | 9.92
C[C@]12C[C@@H]3C[C@](C)(C1)C[C@@](NC(=O)Nc1ccc(C(=O)NC4CCC(C(=O)N(CCO)CCO)CC4)cc1F)(C3)C2 (stereo partly drawn) | 8.53 | 9.64
CCC(=O)N1CCC(CC(=O)N2CCCN(Cc3ccc(NC(=O)N[C@@]45C[C@@H]6C[C@@](C)(C[C@@](C)(C6)C4)C5)c(F)c3)CC2)CC1 | 9.48 | 10.15
C[C@]12C[C@@H]3C[C@](C)(C1)C[C@@](NC(=O)Nc1ccc(CN4CCCC(C(N)=O)C4)cc1F)(C3)C2 (stereo partly drawn) | 9.85 | 10.05
C[C@]12C[C@@H]3C[C@](C)(C1)C[C@@](NC(=O)Nc1ccc(CN4CCC(C(=O)NC(CO)CO)CC4)cc1F)(C3)C2 | 7.50 | 8.65
C[C@]12C[C@@H]3C[C@](C)(C1)C[C@@](NC(=O)Nc1ccc(CN4CCCC(C(=O)N(CCO)CCO)C4)cc1F)(C3)C2 (stereo partly drawn) | 9.55 | 9.54
CCC(=O)N1CCCN(C(=O)C2CCCN(C(=O)c3ccc(NC(=O)N[C@@]45C[C@@H]6C[C@@](C)(C[C@@](C)(C6)C4)C5)c(F)c3)C2)CC1 (stereo partly drawn) | 9.25 | 9.24
CC(=O)N1CCC(CC(=O)N2CCCN(Cc3ccc(NC(=O)N[C@@]45C[C@@H]6C[C@@](C)(C[C@@](C)(C6)C4)C5)c(F)c3)CC2)CC1 | 9.31 | 9.96
CC(O)CNC(=O)C1CCCN(C(=O)c2ccc(NC(=O)N[C@]34C[C@@H]5C[C@@](C)(C[C@@](C)(C5)C3)C4)c(F)c2)C1 (stereo partly drawn) | 9.55 | 9.64
CCN(CC)C(=O)C1CCCN(C(=O)c2ccc(NC(=O)N[C@]34C[C@@H]5C[C@@](C)(C[C@@](C)(C5)C3)C4)c(F)c2)C1 (stereo partly drawn) | 9.46 | 9.42
CCC(C)C(=O)N1CCC(CC(=O)N2CCCN(Cc3ccc(NC(=O)N[C@@]45C[C@@H]6C[C@@](C)(C[C@@](C)(C6)C4)C5)c(F)c3)CC2)CC1 (stereo partly drawn) | 9.11 | 9.80
CCC(C)C(=O)N1CCCN(C(=O)C2CCCN(C(=O)c3ccc(NC(=O)N[C@@]45C[C@@H]6C[C@@](C)(C[C@@](C)(C6)C4)C5)c(F)c3)C2)CC1 (stereo partly drawn) | 8.85 | 9.05
CC(=O)N1CCCN(C(=O)C2CCCN(C(=O)c3ccc(NC(=O)N[C@@]45C[C@@H]6C[C@@](C)(C[C@@](C)(C6)C4)C5)c(F)c3)C2)CC1 (stereo partly drawn) | 9.22 | 9.59
C[C@]12C[C@@H]3C[C@](C)(C1)C[C@@](NC(=O)Nc1ccc(C(=O)NC4CCC(C(=O)N5CCC(CCO)CC5)CC4)cc1F)(C3)C2 (stereo partly drawn) | 7.80 | 9.28
C[C@]12C[C@@H]3C[C@](C)(C1)C[C@@](NC(=O)Nc1ccc(CN4CCC(C(=O)NC(CO)(CO)CO)CC4)cc1F)(C3)C2 | 8.19 | 9.92
C=C(C)C(=O)N1CCC(CC(=O)N2CCCN(C(=O)c3ccc(NC(=O)N[C@@]45C[C@@H]6C[C@@](C)(C[C@@](C)(C6)C4)C5)cc3)CC2)CC1 | 9.00 | 9.89
CCN(CC)C(=O)C1CCCN(Cc2ccc(NC(=O)N[C@@]34C[C@@H]5C[C@@](C)(C[C@@](C)(C5)C3)C4)c(F)c2)C1 (stereo partly drawn) | 9.46 | 9.25
C[C@]12C[C@@H]3C[C@](C)(C1)C[C@@](NC(=O)Nc1ccc(CN4CCCC(C(=O)N5CCN(CCO)CC5)C4)cc1F)(C3)C2 (stereo partly drawn) | 9.01 | 9.26
CN(C)C(=O)C1CCCN(Cc2ccc(NC(=O)N[C@@]34C[C@@H]5C[C@@](C)(C[C@@](C)(C5)C3)C4)c(F)c2)C1 (stereo partly drawn) | 9.15 | 9.92
CCC(C)C(=O)N1CCCN(C(=O)C2CCCN(Cc3ccc(NC(=O)N[C@@]45C[C@@H]6C[C@@](C)(C[C@@](C)(C6)C4)C5)c(F)c3)C2)CC1 (stereo partly drawn) | 9.60 | 9.21
C=C(C)C(=O)N1CCCN(C(=O)C2CCCN(Cc3ccc(NC(=O)N[C@@]45C[C@@H]6C[C@@](C)(C[C@@](C)(C6)C4)C5)c(F)c3)C2)CC1 (stereo partly drawn) | 9.05 | 8.89
CC(O)CNC(=O)C1CCC(NC(=O)c2ccc(NC(=O)N[C@@]34C[C@@H]5C[C@@](C)(C[C@@](C)(C5)C3)C4)c(F)c2)CC1 (stereo partly drawn) | 8.81 | 9.36
